In patent US20240058450A1, “BCL-XL Inhibitory Compounds Having Low Cell Permeability and Antibody Drug Conjugates Including the Same” (AbbVie Inc., priority 2014, published 2024):
Like-named read-outs stand apart in the source and are kept apart here.

Legend:
[1] = tested on: Molt-4 human acute lymphoblastic leukemia cells; assay: Molt-4 cell viability assay (CellTiter-Glo, 48 hours, 10% HS); format: cell-based; conditions: Homo sapiens, MOLT-4, 48 h, non-permeabilized cells
Experimental: The ability of Bcl-xL inhibitors that are able to traverse cell membranes to inhibit Bcl-xL can be determined in cell-based killing assays using a variety of cell lines and mouse tumor models. For example, their activity on cell viability can be assessed on a panel of cultured tumorigenic and non-tumorigenic cell lines, as well as primary mouse or human cell populations.
In one exemplary set of conditions, Molt-4 (ATCC, Manassas, VA) human acute lymphoblastic leukemia cells were plated 12,500 cells per well in 384-well tissue culture plates (Corning, Corning, NY) in a total volume of 25 μL tissue culture medium supplemented with 10% human serum (Sigma-Aldrich, St. Louis, MO) and treated with a 3-fold serial dilution of the compounds of interest from 10 μM to 0.0005 μM. Each concentration was tested in duplicate at least 3 separate times. The number of viable cells following 48 hours of compound treatment was determined using the CellTiter-Glo®, Luminescent Cell Viability Assay according to the manufacturer's recommendations (Promega Corp., Madison, WI). Compounds were tested in the presence of 10% HS.

[2] = target: Bcl-xL (Homo sapiens, UniProt Q07817); assay: Time Resolved-Fluorescence Resonance Energy Transfer (TR-FRET) binding assay, competition with probe F-Bak
Chain of Bcl-xL (Q07817 whole entry): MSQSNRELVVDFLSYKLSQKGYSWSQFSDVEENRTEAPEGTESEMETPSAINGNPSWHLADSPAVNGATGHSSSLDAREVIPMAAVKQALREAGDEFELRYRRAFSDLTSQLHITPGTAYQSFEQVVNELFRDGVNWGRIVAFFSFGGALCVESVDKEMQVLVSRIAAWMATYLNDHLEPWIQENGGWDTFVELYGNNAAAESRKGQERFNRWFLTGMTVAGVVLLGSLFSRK
Outline: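 Compounds compete with F-Bak probe for GST-Bcl-xL detected by Tb-anti-GST antibody. Serial dilutions from 50 μM (2× stock) incubated 2 h at room temperature, then read at 340 nm excitation, 520 and 495 nm emission. Ki by Wang's equation, tested without and with 1% human serum.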

[3] = in the presence of 1% HS, read-out: Bcl-xL Binding Ki (nM, 1% HS)
[4] = without HS, read-out: Bcl-xL Binding Ki

SMILES | EC50 [1] | Ki [2, 3] | Ki [2, 4]
Cc1c(-c2ccc(N3CCc4cccc(C(=O)Nc5nc6ccccc6s5)c4C3)nc2C(=O)O)cnn1CC12CC3(C)CC(C)(C1)CC(OCCNCCCC(=O)O)(C3)C2 [Example 1.56, 6-[8-(1,3-benzothiazol-2-ylcarbamoyl)-3,4-dihydroisoquinolin-2 (1H)-yl]-3-{1-[(3-{2-[(3-carboxypropyl)amino]ethoxy}-5,7-dimethyltricyclo[3.3.1.1^3,7]dec-1-yl)methyl]-5-methyl-1H-pyrazol-4-yl}pyridine-2-carboxylic acid] | 196 nM | 0.123 nM | < 0.001 nM
Cc1c(-c2ccc(N3CCc4cccc(C(=O)Nc5nc6ccccc6s5)c4C3)nc2C(=O)O)cnn1CC12CC3(C)CC(C)(C1)CC(OCCN(CCS(=O)(=O)O)C1CNC1)(C3)C2 [Example 1.60, 3-{1-[(3-{2-[azetidin-3-yl(2-sulfoethyl)amino]ethoxy}-5,7-dimethyltricyclo[3.3.1.1^3,7]dec-1-yl)methyl]-5-methyl-1H-pyrazol-4-yl}-6-[8-(1,3-benzothiazol-2-ylcarbamoyl)-3,4-dihydroisoquinolin-2 (1H)-yl]pyridine-2-carboxylic acid] | 425 nM | 0.049 nM | < 0.001 nM
Cc1c(-c2ccc(N3CCc4cccc(C(=O)Nc5nc6ccccc6s5)c4C3)nc2C(=O)O)cnn1CC12CC3(C)CC(C)(C1)CC(OCCN(CCCN)CCS(=O)(=O)O)(C3)C2 [Example 1.61, 3-{1-[(3-{2-[(3-aminopropyl)(2-sulfoethyl)amino]ethoxy}-5,7-dimethyltricyclo[3.3.1.1^3,7]dec-1-yl)methyl]-5-methyl-1H-pyrazol-4-yl}-6-[8-(1,3-benzothiazol-2-ylcarbamoyl)-3,4-dihydroisoquinolin-2 (1H)-yl]pyridine-2-carboxylic acid] | 255 nM | 0.097 nM | < 0.001 nM
Cc1c(-c2ccc(-c3ccc4c(c3)N(C(=O)Nc3nc5ccccc5s3)CCC4)nc2C(=O)O)cnn1CC12CC3(C)CC(C)(C1)CC(OCCNCCC(=O)O)(C3)C2 [Example 1.62, 6-[1-(1,3-benzothiazol-2-ylcarbamoyl)-1,2,3,4-tetrahydroquinolin-7-yl]-3-{1-[(3-{2-[(2-carboxyethyl)amino]ethoxy}-5,7-dimethyltricyclo[3.3.1.1^3,7]dec-1-yl)methyl]-5-methyl-1H-pyrazol-4-yl)pyridine-2-carboxylic acid] | 153 nM | 0.2 nM | < 0.001 nM
Cc1c(-c2ccc(N3CCc4cccc(C(=O)Nc5nc6ccccc6s5)c4C3)nc2C(=O)O)cnn1CC12CC3(C)CC(C)(C1)CC(OCCN(C)C(=O)[C@@H](N)CCCCN(C)C)(C3)C2 [Example 1.63, 6-[8-(1,3-benzothiazol-2-ylcarbamoyl)-3,4-dihydroisoquinolin-2 (1H)-yl]-3-{1-[(3-{2-[(N′,N′-dimethyl-L-lysyl)(methyl)amino]ethoxy}-5,7-dimethyltricyclo[3.3.1.1^3,7]dec-1-yl)methyl]-5-methyl-1H-pyrazol-4-yl}pyridine-2-carboxylic acid] | 2.22 nM | < 0.01 nM | < 0.01 nM
Cc1c(-c2ccc(-c3ccc4c(c3)N(C(=O)Nc3nc5ccccc5s3)CCC4)nc2C(=O)O)cnn1CC12CC3(C)CC(C)(C1)CC(OCCN(C)CCCN)(C3)C2 [Example 1.64, 3-{1-[(3-{2-[(3-aminopropyl)(methyl)amino]ethoxy}-5,7-dimethyltricyclo[3.3.1.1^3,7]dec-1-yl)methyl]-5-methyl-1H-pyrazol-4-yl)-6-[1-(1,3-benzothiazol-2-ylcarbamoyl)-1,2,3,4-tetrahydroquinolin-7-yl]pyridine-2-carboxylic acid] | 5.25 nM | < 0.01 nM | < 0.01 nM
Cc1c(-c2ccc(-c3ccc4cccc(C(=O)Nc5nc6ccccc6s5)c4c3)nc2C(=O)O)cnn1CC12CC3(C)CC(C)(C1)CC(OCCNCCC(=O)O)(C3)C2 [Example 1.68, 6-[8-(1,3-benzothiazol-2-ylcarbamoyl)naphthalen-2-yl]-3-(1-[(3-{2-[(2-carboxyethyl)amino]ethoxy}-5,7-dimethyltricyclo[3.3.1.1^3,7]dec-1-yl)methyl]-5-methyl-1H-pyrazol-4-yl}pyridine-2-carboxylic acid] | 346 nM | 0.32 nM | < 0.01 nM
Cc1c(-c2ccc(-c3ccc4nccc(C(=O)Nc5nc6ccccc6s5)c4c3)nc2C(=O)O)cnn1CC12CC3(C)CC(C)(C1)CC(OCCNCCS(=O)(=O)O)(C3)C2 [Example 1.70, 6-[4-(1,3-benzothiazol-2-ylcarbamoyl)quinolin-6-yl]-3-{1-[(3,5-dimethyl-7-{2-[(2-sulfoethyl)amino]ethoxy}tricyclo[3.3.1.1^3,7]dec-1-yl)methyl]-5-methyl-1H-pyrazol-4-yl}pyridine-2-carboxylic acid] | 193 nM | 0.275 nM | < 0.01 nM
Cc1c(-c2ccc(-c3cnc4cccc(C(=O)Nc5nc6ccccc6s5)c4c3)nc2C(=O)O)cnn1CC12CC3(C)CC(C)(C1)CC(OCCNCCC(=O)O)(C3)C2 [Example 1.71, 6-[5-(1,3-benzothiazol-2-ylcarbamoyl)quinolin-3-yl]-3-{1-[(3-{2-[(2-carboxyethyl)amino]ethoxy}-5,7-dimethyltricyclo[3.3.1.1^3,7]dec-1-yl)methyl]-5-methyl-1H-pyrazol-4-yl}pyridine-2-carboxylic acid] | 677 nM | 0.061 nM | < 0.01 nM
Cc1c(-c2ccc(N3CCc4cccc(C(=O)Nc5nc6ccccc6s5)c4C3)nc2C(=O)O)cnn1CC12CC3(C)CC(C)(C1)CC(OCCNCCCc1cn([C@@H]4O[C@H](C(=O)O)[C@@H](O)[C@H](O)[C@H]4O)nn1)(C3)C2 [Example 1.73, 8-(1,3-benzothiazol-2-ylcarbamoyl)-2-{6-carboxy-5-[1-({3-[2-({3-[1-(beta-D-glucopyranuronosyl)-1H-1,2,3-triazol-4-yl]propyl}amino)ethoxy]-5,7-dimethyltricyclo[3.3.1.1^3,7]dec-1-yl}methyl)-S-methyl-1H-pyrazol-4-yl]pyridin-2-yl}-1,2,3,4-tetrahydroisoquinoline] | 3500 nM | 34 nM | 0.88 nM
Cc1c(-c2ccc(-c3cc4cccc(C(=O)Nc5nc6ccccc6s5)c4[nH]3)nc2C(=O)O)cnn1CC12CC3(C)CC(C)(C1)CC(OCCNCCS(=O)(=O)O)(C3)C2 [Example 1.74, 6-[7-(1,3-benzothiazol-2-ylcarbamoyl)-1H-indol-2-yl]-3-{1-[(3,5-dimethyl-7-{2-[(2-sulfoethyl)amino]ethoxy}tricyclo[3.3.1.1^3,7]dec-1-yl)methyl]-5-methyl-1H-pyrazol-4-yl}pyridine-2-carboxylic acid] | 5.7 nM | 0.016 nM | < 0.01 nM

Results, then the compound that gave them:

EC50 [1] | Ki [2, 3] | Ki [2, 4] | SMILES
409 nM | 0.85 nM | 0.016 nM | CNCCCc1cc2c(c(C(=O)Nc3nc4ccccc4s3)c1)CN(c1ccc(-c3cnn(CC45CC6(C)CC(C)(C4)CC(OCCNCCS(=O)(=O)O)(C6)C5)c3C)c(C(=O)O)n1)CC2 [Example 1.75, 6-[8-(1,3-benzothiazol-2-ylcarbamoyl)-6-[3-(methylamino)propyl]-3,4-dihydroisoquinolin-2 (1H)-yl]-3-{1-[(3,5-dimethyl-7-{2-[(2-sulfoethyl)amino]ethoxy}tricyclo[3.3.1.1^3,7]dec-1-yl)methyl]-5-methyl-1H-pyrazol-4-yl}pyridine-2-carboxylic acid]
2.22 nM | < 0.01 nM | < 0.01 nM | Cc1c(-c2ccc(-c3ccc4cncc(C(=O)Nc5nc6ccccc6s5)c4c3)nc2C(=O)O)cnn1CC12CC3(C)CC(C)(C1)CC(OCCNCCS(=O)(=O)O)(C3)C2 [Example 1.78, 6-[4-(1,3-benzothiazol-2-ylcarbamoyl)isoquinolin-6-yl]-3-{1-[(3,5-dimethyl-7-(2-[(2-sulfoethyl)amino]ethoxy}tricyclo[3.3.1.1^3,7]dec-1-yl)methyl]-5-methyl-1H-pyrazol-4-yl}pyridine-2-carboxylic acid]
355 nM | 0.78 nM | 0.053 nM | Cc1c(-c2ccc(N3CCc4cccc(C(=O)Nc5nc6ccccc6s5)c4C3)nc2C(=O)O)cnn1CC12CC3(C)CC(C)(C1)CC(OCCNCC[C@H](O)[C@H](O)CO)(C3)C2 [Example 1.80]
252 nM | 0.37 nM | 0.011 nM | Cc1c(-c2ccc(N3CCc4cccc(C(=O)Nc5nc6ccccc6s5)c4C3)nc2C(=O)O)cnn1CC12CC3(C)CC(C)(C1)CC(OCCNC[C@H](O)[C@@H](O)CO)(C3)C2 [Example 1.81, 6-[8-(1,3-benzothiazol-2-ylcarbamoyl)-3,4-dihydroisoquinolin-2 (1H)-yl]-3-(1-{[3,5-dimethyl-7-(2-{[(2S,3S)-2,3,4-trihydroxybutyl]amino}ethoxy)tricyclo[3.3.1.1^3,7]dec-1-yl]methyl}-5-methyl-1H-pyrazol-4-yl}pyridine-2-carboxylic acid]
373 nM | 0.46 nM | 0.023 nM | Cc1c(-c2ccc(N3CCc4cccc(C(=O)Nc5nc6ccccc6s5)c4C3)nc2C(=O)O)cnn1CC12CC3(C)CC(C)(C1)CC(OCCNC[C@H](O)[C@H](O)[C@@H](O)[C@H](O)[C@H](O)CO)(C3)C2 [Example 1.82]
178 nM | 0.66 nM | 0.031 nM | Cc1c(-c2ccc(N3CCc4cccc(C(=O)Nc5nc6ccccc6s5)c4C3)nc2C(=O)O)cnn1CC12CC3(C)CC(C)(C1)CC(OCCNS(=O)(=O)CCCNC(CO)CO)(C3)C2 [Example 1.83]
